The data set concerns the target ABCB1 (Homo sapiens, UniProt P08183).

These results are taken from paper PMC8132112 (Cancer letters, 2018).

Chain of ABCB1 (P08183 whole entry): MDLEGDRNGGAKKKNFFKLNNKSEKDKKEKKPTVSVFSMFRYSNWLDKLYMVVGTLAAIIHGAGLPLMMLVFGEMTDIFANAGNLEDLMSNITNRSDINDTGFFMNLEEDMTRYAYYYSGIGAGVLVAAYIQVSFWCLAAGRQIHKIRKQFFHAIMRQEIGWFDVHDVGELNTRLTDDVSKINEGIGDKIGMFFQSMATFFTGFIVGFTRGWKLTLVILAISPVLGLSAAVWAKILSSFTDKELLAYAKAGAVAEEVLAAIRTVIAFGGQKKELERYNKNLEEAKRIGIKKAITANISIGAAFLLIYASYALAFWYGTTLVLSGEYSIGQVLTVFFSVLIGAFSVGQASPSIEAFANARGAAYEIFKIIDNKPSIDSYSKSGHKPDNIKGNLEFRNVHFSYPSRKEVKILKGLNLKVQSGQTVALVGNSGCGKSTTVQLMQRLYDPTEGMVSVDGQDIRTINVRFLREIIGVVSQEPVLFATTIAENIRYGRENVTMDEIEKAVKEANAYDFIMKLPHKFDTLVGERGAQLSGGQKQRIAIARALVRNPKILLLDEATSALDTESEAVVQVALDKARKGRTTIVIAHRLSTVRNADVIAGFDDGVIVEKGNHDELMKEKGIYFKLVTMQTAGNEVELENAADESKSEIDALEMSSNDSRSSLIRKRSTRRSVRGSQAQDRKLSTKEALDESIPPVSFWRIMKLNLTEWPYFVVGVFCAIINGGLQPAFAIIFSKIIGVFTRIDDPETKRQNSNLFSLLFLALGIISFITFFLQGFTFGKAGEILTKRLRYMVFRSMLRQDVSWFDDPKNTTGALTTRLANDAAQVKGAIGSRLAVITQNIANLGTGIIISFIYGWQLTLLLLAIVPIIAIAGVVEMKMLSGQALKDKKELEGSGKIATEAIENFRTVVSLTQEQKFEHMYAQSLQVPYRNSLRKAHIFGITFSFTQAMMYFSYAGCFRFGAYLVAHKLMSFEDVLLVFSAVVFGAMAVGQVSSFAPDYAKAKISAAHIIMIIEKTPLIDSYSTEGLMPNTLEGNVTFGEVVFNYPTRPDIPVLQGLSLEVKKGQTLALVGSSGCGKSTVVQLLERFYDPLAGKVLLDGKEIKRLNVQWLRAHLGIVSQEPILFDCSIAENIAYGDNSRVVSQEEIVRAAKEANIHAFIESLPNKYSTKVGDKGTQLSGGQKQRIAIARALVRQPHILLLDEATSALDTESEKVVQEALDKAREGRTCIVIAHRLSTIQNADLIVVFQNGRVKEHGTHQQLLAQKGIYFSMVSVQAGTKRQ

Take `CC(=O)O[C@H]1C(=O)[C@@]2(C)[C@H]([C@H](OC(=O)c3ccccc3)[C@]3(O)C[C@H](OC(=O)[C@H](O)[C@@H](NC(=O)c4ccccc4)c4ccccc4)C(C)=C1C3(C)C)[C@]1(OC(C)=O)CO[C@@H]1C[C@@H]2O` [paclitaxel]: the “radiolabelled substrate efflux from ABCB1-overexpressing cells” value is “selonsertib significantly decreased the efflux of [^3H]-paclitaxel in ABCB1-overexpressing cell lines KB-C2 and SW620/Ad300”.
